Reference: US20250382308A1, “COMPOUNDS ACTIVE TOWARDS BROMODOMAINS” (NUEVOLUTION A/S, priority 2022, published 2025)

Key:
[1] = target: human recombinant phosphodiesterase (PDE3A) (Homo sapiens (Human), UniProt Q14432); test: Radiometric PDE3A assay; format: biochemical; details: [3H]-cAMP hydrolysis, 20 minutes at 30° C.
Protocol: Partially purified human recombinant phosphodiesterase (PDE3A) was obtained by cloning cDNA and expressing in S. frugiperda insect cells using a baculovirus expression system. Cells were harvested from culture by centrifuging at 400×g for 5 minutes. Cell pellet was resuspended in 20 ml of RIPA Buffer (150 mM NaCl, 10 mM Tris, 0.1% NP-40, pH8.3), 4 ml/200 ml of culture, plus protease inhibitors (100 μl/10 ml) and incubated on ice for 10-20 minutes then spun at 3500×g for 10 minutes at 4° C. Supernatant was kept and the pellet thrown away. Tritium-labeled cyclic AMP was hydrolysed to 5′-AMP by PDE3A. The 5′-AMP was then further hydrolysed to adenosine by nucleotidase in snake venom. An anion-exchange resin binds all charged nucleotides and leaves [3H]adenosine as the only labeled compound to be counted by liquid scintillation. The radiometric assay method is a modification of the two-step method of Thompson and Appleman [Biochemistry 10; 311-316; 1971], adapted for a 96 well plate format. 50 μl of diluted PDE3A was incubated with 50 μl of [3H]-CAMP (specific activity 25 Ci/mmol) and 11 μl of 50% DMSO (or compound dilution) for 20 minutes at 30° C. The enzyme was diluted in 20 mM Tris HCl pH7.4 (×2.2 final concentration) and [3H]-cAMP were diluted in 10 mM MgCl2, 40 mM Tris HCl pH 7.4 (×2.2 final concentration). Reactions were carried out in Greiner 96 deep well 1 ml master-block. The plates were centrifuged for 9 seconds before the 20 minutes incubation. The reaction was terminated by denaturing the PDE enzyme (at 70° C. for 2 minutes, plates were left to cool on ice for 10 minutes) after which 25 μl snake venom nucleotidase (225 ug/ml final concentration) was added and incubated for 10 minutes (at 30° C.), plates were centrifuged for 9 seconds before incubation. After incubation 200 μl Dowex resin (1×8, 200-400 mesh) was added and the plate was shaken for 20 minutes then centrifuged for 3 minutes at 1000×g. 50 μl of supernatant was removed and added to 200 μl of MicroScint-20 in white plates (Greiner 96-well Optiplate) and shaken for 30 minutes before reading on Perkin Elmer TopCount Scintillation Counter. GraphPad Prism™ was used to calculate the IC50 values using a sigmoidal dose response (variable slope). The analysis measures 4 parameters including the best fit values for the bottom and top fit of the curve, the hill slope value and the IC50 value.

[2] = target: first bromodomain of BRD4 (Homo sapiens (Human), UniProt O60885); test: Bromoscan binding assay BRD4 (1); details: for Kd: Bromoscan, geometric mean where multiple measurements have been made; for Selectivity BRD4(2)/BRD4(1): ratio BRD4(2) Kd / BRD4(1) Kd
Protocol: (§1) Compounds were assayed for binding affinity using bromoscan assays and a phosphodiesterase three assay.
(§2) Bromoscan assays were run by DiscoveRx Corporation. The relevant assay names are BRD4 (1) for the first bromodomain of BRD4 and BRD4 (2) for the second bromodomain of BRD4. Further Bromoscan assays covering other bromodomains may be employed to establish the selectivity profile of a compound of interest. To run the Bromoscan assay, a T7 phage strain displaying the relevant bromodomain was grown in parallel in 24-well blocks in an E. coli host derived from the BL21 strain. E. coli were grown to log-phase and infected with T7 phage from a frozen stock (multiplicity of infection=0.4) and incubated with shaking at 32° C. until lysis (90-150 minutes). The lysates were centrifuged (5,000×g) and filtered (0.2 μm) to remove cell debris. […] The liganded beads were blocked with excess biotin and washed with blocking buffer (SeaBlock (Pierce), 1% BSA (bovine serum albumin), 0.05% Tween 20, 1 mM DTT (dithiothreitol)) to remove unbound ligand and to reduce non-specific phage binding. […] Test compounds were prepared as 1000× stocks in 100% DMSO and subsequently diluted 1:10 in monoethylene glycol (MEG) to create stocks at 100× the screening concentration (resulting stock solution is 10% DMSO/90% MEG). The compounds were then diluted directly into the assays such that the final concentration of DMSO and MEG were 0.1% and 0.9%, respectively. All reactions were performed in polystyrene 96-well plates in a final volume of 0.135 ml. […] The bromodomain concentration in the eluates was measured by qPCR (quantitative real-time polymerase chain reaction). Binding constants (Kds) were calculated with a standard dose-response curve using the Hill equation: Response=Blackground+((Signal-Background)/(1+Kd^Hill Slope/Dose^Hill Slope)). The Hill Slope was set to −1. Curves were fitted using a non-linear least square fit with the Levenberg-Marquardt algorithm.

[3] = target: second bromodomain of BRD4 (Homo sapiens (Human), UniProt O60885); test: Bromoscan binding assay BRD4 (2); details: geometric mean where multiple measurements have been made
Protocol: as §1, §2

Sequence of human recombinant phosphodiesterase (PDE3A) (Q14432 whole entry): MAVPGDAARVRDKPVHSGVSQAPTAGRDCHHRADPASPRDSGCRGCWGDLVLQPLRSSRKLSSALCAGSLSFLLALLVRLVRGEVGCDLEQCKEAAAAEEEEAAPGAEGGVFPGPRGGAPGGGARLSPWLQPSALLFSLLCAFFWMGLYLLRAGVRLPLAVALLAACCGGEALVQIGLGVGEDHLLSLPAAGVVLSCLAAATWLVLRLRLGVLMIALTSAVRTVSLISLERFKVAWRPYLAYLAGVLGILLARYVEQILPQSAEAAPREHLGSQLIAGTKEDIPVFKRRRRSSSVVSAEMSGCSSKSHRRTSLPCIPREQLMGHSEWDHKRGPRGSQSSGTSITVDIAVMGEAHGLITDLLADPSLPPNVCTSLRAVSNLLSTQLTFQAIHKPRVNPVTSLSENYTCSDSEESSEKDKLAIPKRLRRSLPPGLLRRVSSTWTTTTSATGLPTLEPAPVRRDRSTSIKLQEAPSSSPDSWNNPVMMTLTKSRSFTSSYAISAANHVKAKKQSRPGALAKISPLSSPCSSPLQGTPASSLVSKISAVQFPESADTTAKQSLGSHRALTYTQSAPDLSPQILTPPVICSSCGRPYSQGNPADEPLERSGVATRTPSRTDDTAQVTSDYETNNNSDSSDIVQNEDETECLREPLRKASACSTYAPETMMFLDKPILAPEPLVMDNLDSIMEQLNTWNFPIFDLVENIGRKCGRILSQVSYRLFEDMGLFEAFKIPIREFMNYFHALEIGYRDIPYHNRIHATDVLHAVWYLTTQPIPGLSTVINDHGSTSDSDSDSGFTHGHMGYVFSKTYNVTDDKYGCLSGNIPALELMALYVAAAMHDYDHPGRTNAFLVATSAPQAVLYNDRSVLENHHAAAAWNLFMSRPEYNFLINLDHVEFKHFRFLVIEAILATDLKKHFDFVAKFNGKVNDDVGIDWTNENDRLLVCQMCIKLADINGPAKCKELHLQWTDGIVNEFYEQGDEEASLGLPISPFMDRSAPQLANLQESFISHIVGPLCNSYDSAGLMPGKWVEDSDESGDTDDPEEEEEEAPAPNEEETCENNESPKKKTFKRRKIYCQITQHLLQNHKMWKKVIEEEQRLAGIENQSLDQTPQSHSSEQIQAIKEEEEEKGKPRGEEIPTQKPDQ

SMILES | IC50 [1] [nM] | Kd [2] [nM] | Selectivity BRD4(2)/BRD4(1) [2] | Kd [3] [nM]
COc1cc(NC(=O)c2cc3c(nc2N2C[C@H]4C[C@@H]2CO4)COC3)cc2c(C)cc(=O)[nH]c12 [Example 24, N-(8-methoxy-4-methyl-2-oxo-1H-quinolin-6-yl)-2-[(1R,4R)-2-oxa-5-azabicyclo[2.2.1]heptan-5-yl]-5,7-dihydrofuro[3,4-b]pyridine-3-carboxamide] | > 10000 | – | – | –
Cc1cc(=O)[nH]c2c(OCCO)cc(NC(=O)c3cc4c(nc3N3CCOCC3)COC4)cc12 [Example 36, N-[8-(2-hydroxyethoxy)-4-methyl-2-oxo-1H-quinolin-6-yl]-2-morpholino-5,7-dihydrofuro[3,4-b]pyridine-3-carboxamide] | > 10000 | 27 | 15 | 400
CCOc1cc(NC(=O)c2cc3c(nc2N2CCOCC2)COC3)cc2c(C)cc(=O)[nH]c12 [Example 12, N-(8-ethoxy-4-methyl-2-oxo-1H-quinolin-6-yl)-2-morpholino-5,7-dihydrofuro[3,4-b]pyridine-3-carboxamide] | > 10000 | 87 | 93 | 8100
COc1cc(NC(=O)c2cc3c(nc2N2C[C@H](F)[C@@H](F)C2)COC3)cc2c(C)cc(=O)[nH]c12 (racemic) [Example 43, N-(8-methoxy-4-methyl-2-oxo-1H-quinolin-6-yl)-2-[rac-(3S,4S)-3,4-difluoropyrrolidin-1-yl]-5,7-dihydrofuro[3,4-b]pyridine-3-carboxamide] | > 10000 | 18 | 22 | 400
COc1cc(NC(=O)c2cc3c(nc2N(C)CC2CC2)COC3)cc2c(C)cc(=O)[nH]c12 [Example 26, 2-[cyclopropylmethyl(methyl)amino]-N-(8-methoxy-4-methyl-2-oxo-1H-quinolin-6-yl)-5,7-dihydrofuro[3,4-b]pyridine-3-carboxamide] | > 10000 | 51 | 61 | 3100
COc1cc(NC(=O)c2cc3c(nc2C2=CCOCC2)COC3)cc2c(C)cc(=O)[nH]c12 [Example 2, 2-(3,6-dihydro-2H-pyran-4-yl)-N-(8-methoxy-4-methyl-2-oxo-1H-quinolin-6-yl)-5,7-dihydrofuro[3,4-b]pyridine-3-carboxamide] | > 10000 | 64 | 41 | 2600
Cc1cc2[nH]c(=O)cc(C)c2cc1NC(=O)c1cc2c(nc1N1CCOCC1)COC2 [Example 11, N-(4,7-dimethyl-2-oxo-1H-quinolin-6-yl)-2-morpholino-5,7-dihydrofuro[3,4-b]pyridine-3-carboxamide] | 7000 | 90 | >111 | > 10000
COc1cc(NC(=O)c2cc3c(nc2N2CCOCC2)CNC3)cc2c(C)cc(=O)[nH]c12 [Example 1, N-(8-methoxy-4-methyl-2-oxo-1H-quinolin-6-yl)-2-morpholino-6,7-dihydro-5H-pyrrolo[3,4-b]pyridine-3-carboxamide] | > 10000 | 8 | 75 | 600
COc1cc(NC(=O)c2cc3c(nc2N2C4CCC2COC4)COC3)cc2c(C)cc(=O)[nH]c12 [Example 17, N-(8-methoxy-4-methyl-2-oxo-1H-quinolin-6-yl)-2-(3-oxa-8-azabicyclo[3.2.1]octan-8-yl)-5,7-dihydrofuro[3,4-b]pyridine-3-carboxamide] | > 10000 | 25 | 44 | 1100
COc1cc(NC(=O)c2cc3c(nc2N2CCOCC2)COC3)cc2c(C)cc(=O)[nH]c12 [Example 15, N-(8-methoxy-4-methyl-2-oxo-1H-quinolin-6-yl)-2-morpholino-5,7-dihydrofuro[3,4-b]pyridine-3-carboxamide] | > 10000 | 14 | 157 | 2200
COc1cc(NC(=O)c2cc3c(nc2N2CC[C@H](F)C2)COC3)cc2c(C)cc(=O)[nH]c12 [Example 41, 2-[(3S)-3-fluoropyrrolidin-1-yl]-N-(8-methoxy-4-methyl-2-oxo-1H-quinolin-6-yl)-5,7-dihydrofuro[3,4-b]pyridine-3-carboxamide] | > 10000 | 92 | >109 | > 10000
COc1cc(NC(=O)c2cc3c(nc2N2CCOCC2)CCC3)cc2c(C)cc(=O)[nH]c12 [Example 29, N-(8-methoxy-4-methyl-2-oxo-1H-quinolin-6-yl)-2-morpholino-6,7-dihydro-5H-cyclopenta[b]pyridine-3-carboxamide] | > 10000 | 18 | 106 | 1900
COc1cc(NC(=O)c2cc3c(nc2N2C4CCC2CC4)COC3)cc2c(C)cc(=O)[nH]c12 [Example 39, 2-(7-azabicyclo[2.2.1]heptan-7-yl)-N-(8-methoxy-4-methyl-2-oxo-1H-quinolin-6-yl)-5,7-dihydrofuro[3,4-b]pyridine-3-carboxamide] | > 10000 | 7 | 43 | 300
Cc1cc(=O)[nH]c2c(C)cc(NC(=O)c3cc4c(nc3N3CCOCC3)COC4)cc12 [Example 7, N-(4,8-dimethyl-2-oxo-1H-quinolin-6-yl)-2-morpholino-5,7-dihydrofuro[3,4-b]pyridine-3-carboxamide] | > 10000 | 40 | 178 | 7100
CNCCOc1cc(NC(=O)c2cc3c(nc2N2CCOCC2)COC3)cc2c(C)cc(=O)[nH]c12 [Example 38, N-[4-methyl-8-[2-(methylamino)ethoxy]-2-oxo-1H-quinolin-6-yl]-2-morpholino-5,7-dihydrofuro[3,4-b]pyridine-3-carboxamide] | > 10000 | 20 | >250 | > 5000
Cc1c(NC(=O)c2cc3c(nc2N2CCOCC2)COC3)cc2c(C)cc(=O)[nH]c2c1C [Example 13, 2-morpholino-N-(4,7,8-trimethyl-2-oxo-1H-quinolin-6-yl)-5,7-dihydrofuro[3,4-b]pyridine-3-carboxamide] | > 10000 | 280 | >35 | > 10000
Cc1cc(=O)[nH]c2c(OC3CNC3)cc(NC(=O)c3cc4c(nc3N3CCOCC3)COC4)cc12 [Example 37, N-[8-(azetidin-3-yloxy)-4-methyl-2-oxo-1H-quinolin-6-yl]-2-morpholino-5,7-dihydrofuro[3,4-b]pyridine-3-carboxamide] | > 10000 | 35 | >286 | > 10000
COc1cc(NC(=O)c2cc3c(nc2N2CCOCC2)CO[C@@H]3C)cc2c(C)cc(=O)[nH]c12 [Example 30, (5R)—N-(8-methoxy-4-methyl-2-oxo-1H-quinolin-6-yl)-5-methyl-2-morpholino-5,7-dihydrofuro[3,4-b]pyridine-3-carboxamide] | – | 14 | 86 | 1200
